Read-outs that look alike come from different tables or passages of the source. Residues, ends and D or L forms follow the SMILES beside them. No end group written: not given here.
Legend:
[1] = tested on: vesicular stomatitis virus; format: cell-based
[2] = tested on: A/WSN strain of influenza virus; format: cell-based
[3] = tested on: intracellular virus protein synthesis; format: cell-based, Sindbis virus; conditions: peptide 0.1 mg/ml
uninfected cells = conditions: tissue culture cells
Semliki Forest virus = conditions: 4 h, 1 mg/ml
[4] = tested on: viral nucleoprotein and matrix protein; format: cell-based, influenza virus
[5] = tested on: viral ribonucleoprotein particles (RNP)
Chain of viral ribonucleoprotein particles (RNP) (P15682 whole entry): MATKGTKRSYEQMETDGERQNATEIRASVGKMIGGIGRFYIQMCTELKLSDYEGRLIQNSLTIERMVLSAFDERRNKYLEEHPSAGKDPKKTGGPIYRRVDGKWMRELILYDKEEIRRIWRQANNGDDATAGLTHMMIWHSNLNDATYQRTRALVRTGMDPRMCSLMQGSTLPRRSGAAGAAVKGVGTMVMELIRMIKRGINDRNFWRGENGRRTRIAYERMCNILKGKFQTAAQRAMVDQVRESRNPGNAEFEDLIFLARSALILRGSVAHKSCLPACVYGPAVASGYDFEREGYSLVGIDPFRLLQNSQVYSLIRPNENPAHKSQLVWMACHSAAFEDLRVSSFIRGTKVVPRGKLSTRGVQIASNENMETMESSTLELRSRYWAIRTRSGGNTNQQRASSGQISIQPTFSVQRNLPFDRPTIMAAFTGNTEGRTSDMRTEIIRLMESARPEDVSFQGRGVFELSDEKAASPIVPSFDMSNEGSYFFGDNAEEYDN

CCCCCCCC(=O)N[C@@H](CC(C)C)C(=O)N[C@H](C(=O)N1CCC[C@H]1C(=O)N[C@@H](Cc1ccc(O)cc1)C(=O)N[C@@H](C)C(=O)N[C@@H](CC(C)C)C(=O)N[C@@H](C)C(N)=O)[C@@H](C)O [OCTANOYLATED HEPTAPEPTIDE L-T-P-Y-A-L-A, L-T-P-Y-A-L-A] (HELM PEPTIDE1{[CCCCCCCC(=O)[*:2]].L.T.P.Y.A.L.A.[am]}$$$$V2.0)
effect on cells infected with vesicular stomatitis virus [1]: no effect | inhibition of vesicular stomatitis virus formation and secretion [1]: no inhibition | effect on cells infected with influenza [2]: no effect | increase of inhibitory potency by addition of an octanoyl group (Sindbis virus): 10 fold | inhibition of intracellular virus protein synthesis [3]: no inhibition | effect on uninfected cells (uninfected cells): no effect

LTPYAL-NH2 [HEXAPEPTIDE L-T-P-Y-A-L, L-T-P-Y-A-L]
Degree of Inhibition (Semliki Forest virus): 36%

N-G-S-L-Q-C-R-I (NGSLQCRI) [8 amino acid peptide lacking the two carboxy-terminal amino acids of HA2 (213-222)]
inhibition of influenza virus release ([2]; specificity tests, E2 (391-399) at 1 mg/ml in FIG. 2): non-inhibitory

N-G-S-L-Q-C-R-I-C-I-NH2 (NGSLQCRICI-NH2; cysteine pairing not given here) [HA2 (213-222)]
block of release of vesicular stomatitis virus ([1]; 200 μg/ml): 15% | changes in synthesis of intracellular viral nucleoprotein and matrix protein ([4]; increasing amounts of peptide): No significant changes | Incorporation (% of control) ([4]; peptide level 20 μg/ml): 110 +/-12 % of control | Incorporation (% of control) ([4]; peptide level 50 μg/ml): 108 +/-12 % of control | Incorporation (% of control) ([4]; peptide level 100 μg/ml): 94 +/-9 % of control | Incorporation (% of control) ([4]; peptide level 200 μg/ml): 83 % of control | Incorporation (% of control) ([4]; peptide level 250 μg/ml): 97 % of control | half-maximal dose, inhibition of virus particle secretion [2]: less than 50 μg/ml | inhibition of release of influenza virus particles ([2]; 150 μg/ml peptide (RNP test)): 70% | inhibition of release of influenza virus ([2]; 200 μg/ml): 90% | block of virus particle secretion ([2]; 250 μg/ml (225 μM)): > 90% | IC50 ([2]; read-out: half-maximal dose, inhibition of virus particle secretion): < 45 µM | block in the release of Sindbis virus (Sindbis virus; 200 μg/ml): no block | nucleoprotein in the RNP peak, % of the total cytoplasmic nucleoprotein [5]: 19%

From patent US5104854A (priority 1991, dated 1992)
